# According to patent US12637425B2, “Compounds and formulations for treating ophthalmic diseases” (Visus Therapeutics, Inc., priority 2020, dated 2026):
# What was measured:
# [1] = target: T1, Recombinant cryAB(R120G) protein (Homo sapiens, UniProt P02511, R120G); assay: Kinetic turbidity aggregation assay of recombinant cryAB(R120G); assay type: biochemical; settings: for inhibition at 25 µM: 25 μM compound, read-out: % Inhibition of Protein Aggregation, 25 μM cmpd; for inhibition at 25 µM / inhibition at 100 µM / inhibition at 400 µM: 15 μM cryAB(R120G), 42° C., absorbance at 550 nm; for inhibition at 100 µM: 100 μM compound, read-out: % Inhibition of Protein Aggregation, 100 μM cmpd; for inhibition at 400 µM: 400 μM compound, read-out: % Inhibition of Protein Aggregation, 400 μM cmpd; for IC50: inhibition of cryAB(R120G) protein aggregation
# T1 sequence (P02511 1-175 R120G): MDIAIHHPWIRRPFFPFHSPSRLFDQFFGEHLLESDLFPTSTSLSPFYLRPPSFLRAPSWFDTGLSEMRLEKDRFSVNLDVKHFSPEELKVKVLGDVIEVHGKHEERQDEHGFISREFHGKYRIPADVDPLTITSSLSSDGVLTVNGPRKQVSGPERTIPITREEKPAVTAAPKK
# Summary of the method: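 Recombinant human cryAB R120G at 15 μM final in 50 mM Tris, 100 mM NaCl, 5 mM DTT, 0.01% Triton X-100, 0.05% PEG-8000 with 4% DMSO. Compounds added from 2-fold serial DMSO dilutions, run in quadruplicate; aggregation followed kinetically by turbidity.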
# [2] = target: T2, Alpha-Crystallin Domain of alpha B crystallin containing the E117C mutation (Homo sapiens, UniProt P02511, E117C); assay: CryAB binding assay (MicroScale Thermophoresis, direct binding); settings: 100 nM Cy5-labeled protein, Tris buffer pH 8
# T2 construct: the Alpha-Crystallin Domain of alpha B crystallin containing the E117C mutation
# T2 sequence (P02511 56-164 E117C limits assumed): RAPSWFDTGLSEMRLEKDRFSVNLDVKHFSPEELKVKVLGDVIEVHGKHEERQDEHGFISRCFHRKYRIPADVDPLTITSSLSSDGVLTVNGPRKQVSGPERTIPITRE
# Protocol: Example A-2: CryAB Binding Assay
# Affinities were determined by MicroScale Thermophoresis using a direct binding assay. Briefly, the Alpha-Crystallin Domain of alpha B crystallin containing the E117C mutation was alkylated with a Cy5 dye and monitored for binding at 100 nM protein in Tris buffer pH 8, containing 0.1% PEG-8000, 0.05% Tween-20, and 5% DMSO. Binding assays were performed by titrating ligand against a mixture of the dye-labeled protein and monitoring fluorescence changes indicating binding. Based on observed fluorescence measurements for each compound titration a KD was calculated using the Law of Mass Action equation.
Compound,inhibition at 25 µM [1] [%],inhibition at 100 µM [1] [%],inhibition at 400 µM [1] [%],IC50 [1] [µM],Kd [2] [µM]
"Cn1cc([C@@H](CNS(=O)(=O)c2ccc3cc[nH]c3c2)N2CCCC2)c2ccccc21 [Compound 24, (S)-N-(2-(1-methyl-1H-indol-3-yl)-2-(pyrrolidin-1-yl)ethyl)-1H-indole-6-sulfonamide]",99.7,99.9,–,≤ 10,≤ 10
"Cn1cc([C@H](CNS(=O)(=O)c2ccc3cc[nH]c3c2)N2CCCC2)c2ccccc21 [Compound 25, (R)-N-(2-(1-methyl-1H-indol-3-yl)-2-(pyrrolidin-1-yl)ethyl)-1H-indole-6-sulfonamide]",39,97.1,97.2,10 to 50,10 to 50
"CCn1nc([C@@H](CNS(=O)(=O)c2ccc3cc[nH]c3c2)N2CCCC2)c2ccccc21 [Compound 91, (R)-N-(2-(1-ethyl-1H-indazol-3-yl)-2-(pyrrolidin-1-yl)ethyl)-1H-indole-6-sulfonamide]",99,99.6,–,≤ 10,≤ 10

# Second part, the molecule after the results:
inhibition at 25 µM [1] [%],inhibition at 100 µM [1] [%],inhibition at 400 µM [1] [%],IC50 [1] [µM],Kd [2] [µM],Compound
69.8,98.7,99.7,10 to 50,10 to 50,"CN(C)C(CNS(=O)(=O)c1ccc2cc[nH]c2c1)c1cn(C)c2ccccc12 (stereo not shown) [Compound 10, N-(2-(dimethylamino)-2-(1-methyl-1H-indol-3-yl)ethyl)-1H-indole-6-sulfonamide]"
99.7,94.3,–,≤ 10,≤ 10,"Cn1cc(C(CN(CC#N)S(=O)(=O)c2ccc3cc[nH]c3c2)N2CCCC2)c2ccccc21 (stereo not shown) [Compound 93, N-(cyanomethyl)-N-(2-(1-methyl-1H-indol-3-yl)-2-(pyrrolidin-1-yl)ethyl)-1H-indole-6-sulfonamide]"
